Data from ChEMBL document CHEMBL3616380, “Photocytotoxicity, cellular uptake and subcellular localization of amidinophenylporphyrins as potential photodynamic therapeutic agents: An in vitro cell study” (Bioorg Med Chem Lett, 2015).

What was measured:
[1] = Dark cytotoxicity against human HK1 cells assessed as cell viability at 1 to 8 uM after 24 hrs by MTT reduction assay; assay type: cell-based; conditions: hk1, 24 h
[2] = Photocytotoxicity against human HK1 cells assessed as cell viability at 8 uM measured 24 hrs post 4 J/cm'2 irradiation by MTT reduction assay; assay type: functional; conditions: HK-1, light or radiation study, read-out: Activity
[3] = Photocytotoxicity against human HK1 cells assessed as cell viability at 4 uM measured 24 hrs post 12 J/cm'2 irradiation by MTT reduction assay; assay type: functional; conditions: HK-1, light or radiation study, read-out: Activity
[4] = Cellular uptake in human HK1 cells assessed per 10^6 cells at 8 uM after 1 to 24 hrs by flow cytometry; assay type: ADME, cell-based; conditions: hk1, 8 µM
[5] = Drug uptake in lysosomes of human HK1 cells at 8 uM after 24 hrs by confocal microscopy analysis; assay type: ADME, cell-based, Lysosome; conditions: hk1, 24 h
[6] = Drug uptake in mitochondria of human HK1 cells at 8 uM after 24 hrs by confocal microscopy analysis; assay type: ADME; conditions: hk1, 24 h

Row | Compound | Activity [1] | viability at 8 µM [2] | viability at 4 µM [3] | Drug uptake [4] | Drug uptake [5] | Drug uptake [6]
1 | N=C(N)c1ccc(-c2c3nc(c(-c4ccc(C(=N)N)cc4)c4ccc([nH]4)c(-c4ccc(C(=N)N)cc4)c4nc(c(-c5ccc(C(=N)N)cc5)c5ccc2[nH]5)C=C4)C=C3)cc1 | Non-toxic | 50% | 90% | Active | Active | 
2 | N=C(N)c1ccc(-c2c3nc(c(-c4ccc(C(=N)N)cc4)c4ccc([nH]4)c(-c4ccc(C(=N)N)cc4)c4nc(c(-c5ccc(OCCCOc6ccc(-c7c8nc(c(-c9ccccc9)c9ccc([nH]9)c(-c9ccccc9)c9nc(c(-c%10ccccc%10)c%10ccc7[nH]%10)C=C9)C=C8)cc6)cc5)c5ccc2[nH]5)C=C4)C=C3)cc1 | Non-toxic |  | 20% | Active | Active | 
3 | C[n+]1ccc(-c2c3nc(c(-c4cc[n+](C)cc4)c4ccc([nH]4)c(-c4cc[n+](C)cc4)c4ccc([nH]4)c(-c4cc[n+](C)cc4)c4nc2C=C4)C=C3)cc1 [TMPYP4] | Non-toxic |  | 58% | Active |  | Active
